Converted amounts (≈) assume the structure as drawn. Each block holds one compound with its values, some of them ahead of it.
Tests used:
HM cells = assay: Cell viability of HM malignant mesothelioma cells, 48 h, crystal violet staining; assay type: cell-based
Procedure: (§1) Studies were performed to test the effects on cell viability of mesothelial (LP9) and malignant mesothelioma (HM) cells in culture when contacted with thiostrepton (TS) or TS diluted in Vitamin E-TPGS (VitE-TPGS, D-alpha-tocopherol polyethylene glycol 1000 succinate).
(§2) Indicated cell lines were plated into 96 well plates and allowed to adhere overnight. The following day test compounds were serially diluted in duplicate wells onto cells in complete tissue culture media. VitE-TPGS was serially diluted from a starting concentration of 0.025% (w/v) in 0.9% NaCl and added to LP9 or HM cells (FIG. 1). TS, dissolved in DMSO, was diluted to a starting concentration of 20 μM into cell culture media and serially diluted or diluted from a 1.5 mM TS/DMSO/5% VitE-TPGS (33 mM)/0.9% NaCl solution to a starting concentration of 20 μM TS/0.06% VitE-TPGS and serially diluted onto LP9 or HM cells (FIG. 2). Cells were incubated with test compounds for 48 hours before determining cell number using an indirect readout of cell viability by staining residual cells with crystal violet. The inhibitory concentration (IC50) in which 50% of the cells are not viable, was determined for tested compounds.

physchem = conditions: 5% VitE-TPGS in normal saline, aqueous with cosolvent or surfactant or cyclodextrin, thermodynamic from solid
Procedure: (§3) This study was performed to determine the intrinsic solubility of the test article in a variety of formulation systems as detailed below.
(§4) This method measured equilibrium solubility after 24h incubation with the desired formulation mixture. The solubility of the test article in each formulation mixture was measured by comparison of the AUC of the LC/MS spectrum obtained by injection of the solution of the test article in the desired solvent to the AUC of a reference standard solution. […] The reference solution was made fresh for every time point. Data was then calculated to give % test article remaining as function of time.
(§5) 1) A stock solution of the active pharmaceutical ingredient (API) was prepared in a 1,4-dioxane at 10 mM. 2) Nineteen 200 μl portions of stock were dispensed into 19 clean 500 μl micro-centrifuge tubes and the solvent removed by a stream of nitrogen. The 19 tubes were marked with numbers 1-19. 3) Five 200 μl portions of stock were dispensed into 5 clean 200 μl micro-centrifuge tubes and the solvent removed by a stream of nitrogen; these tubes were marked: S1, S2, S3, S4 and S5 and were to be saved for quantization by LC/MS. 4) The vehicles were prepared on a w/w basis for co-solvents, and on a molar basis for salts. 5) 200 μL of each vehicle was introduced into the appropriate micro centrifuge tube 1-19, corresponding to that vehicle. The final concentration of API was 10 mM. These were the test samples. 6) The sample tubes 1-19 were sonicated for 30 min and then agitated for 24h. 7) The vessel was centrifuged and 50 μl of the supernatant was removed and diluted with 350 μl of acetonitrile for LC/MS analysis. These were the test samples. 8) Micro-centrifuge tubes S1-S5 were reconstituted immediately before analysis by adding 200 μl of acetonitrile and 200 μl od 1,4-dioxane to the tubes and sonicating for 30 min. These were the standards. 9) Before analysis all 24 tubes were centrifuged. 10) 50 μl of the clear supernatant from Sample tubes 1-19 was removed and diluted into 350 μl of acetonitrile for LC/MS analysis. 11) 100 μl of the clear supernatant from Standard tubes S1-S5 was removed and diluted into 300 μl of acetonitrile for LC/MS analysis.
(§6) 13) Quantization was based on comparison to the AUC from the stock solution and was relative.
(§7) A freshly prepared standard was used for each time point.

[1] = Equilibrium (intrinsic) solubility of the test article in formulation mixtures, 24h, LC/MS; conditions: for solubility at 24 h: aqueous with cosolvent or surfactant or cyclodextrin, thermodynamic from solid
Procedure: as §3, §4, §5, §6, §7

LP9 cells = assay: Cell viability of LP9 mesothelial cells, 48 h, crystal violet staining; assay type: cell-based; conditions: VitE-TPGS (w/v) in 0.9% NaCl
Procedure: as §1, §2

Compound: C=C(NC(=O)C(=C)NC(=O)c1csc(C2=N[C@@H]3c4csc(n4)[C@H]4NC(=O)c5csc(n5)[C@H]([C@](C)(O)[C@@H](C)O)NC(=O)[C@H]5CSC(=N5)/C(=C/C)NC(=O)[C@H]([C@@H](C)O)NC(=O)c5csc(n5)[C@]3(CC2)NC(=O)[C@H](C)NC(=O)C(=C)NC(=O)[C@H](C)NC(=O)[C@H]([C@@H](C)CC)N[C@@H]2C=Cc3c([C@H](C)O)cc(nc3[C@H]2O)C(=O)O[C@@H]4C)n1)C(N)=O [TS, Thiostrepton]
Sensitivity of HM cells compared to LP9 cells (HM cells; HM vs LP9 cells): more sensitive
solubility at 24 h (physchem): 1740 µM (≈ 2900 µg/mL)
solubility at 24 h ([1]; 1% polyacrylic acid (450,000 amw) in normal saline): 130 µM (≈ 216 µg/mL)
solubility at 24 h ([1]; 1% polyvinylalcohol (61,000 amw) in normal saline): 200 µM (≈ 333 µg/mL)
Solubility (in words) ([1]; 1,4-dioxane and chloroform): freely soluble
solubility at 24 h ([1]; 2% Tween 80 in normal saline): 220 µM (≈ 366 µg/mL)
solubility at 24 h ([1]; 10% Cremophore in normal saline): 1140 µM (≈ 1900 µg/mL)
solubility at 24 h ([1]; 10% Solutol HS 15 in normal saline): 520 µM (≈ 866 µg/mL)
solubility at 24 h ([1]; 10% capmul in normal saline): 50 µM (≈ 83.2 µg/mL)
solubility at 24 h ([1]; 10% meglumine in normal saline): 200 µM (≈ 333 µg/mL)
solubility at 24 h ([1]; 20% Captisol in normal saline): 380 µM (≈ 633 µg/mL)
solubility at 24 h ([1]; 20% Gelucire 44/14 in normal saline): 1170 µM (≈ 1950 µg/mL)
solubility at 24 h ([1]; 20% Labrafil 1944CS in normal saline): 490 µM (≈ 816 µg/mL)
solubility at 24 h ([1]; 20% Peceol in normal saline): 300 µM (≈ 499 µg/mL)
solubility at 24 h ([1]; 20% hydroxypropyl-beta-cyclodextrin in normal saline): 440 µM (≈ 733 µg/mL)
solubility at 24 h ([1]; 20% poloxamer 188 in normal saline): 210 µM (≈ 350 µg/mL)
solubility at 24 h ([1]; 20% transcutol in normal saline): 660 µM (≈ 1100 µg/mL)
solubility at 24 h ([1]; 30% Capryol 90 in normal saline): 1470 µM (≈ 2450 µg/mL)
solubility at 24 h ([1]; 30% Labrafac PG in normal saline): 380 µM (≈ 633 µg/mL)
solubility at 24 h ([1]; 30% Labrasol in normal saline): 150 µM (≈ 250 µg/mL)
solubility at 24 h ([1]; 30% polyethylene glycol 300 in normal saline): 320 µM (≈ 533 µg/mL)
Solubility (in words) ([1]; aqueous solutions and a variety of organic solvents): fairly low solubility

IC50 (HM cells; HM cells, VitE-TPGS (w/v) in 0.9% NaCl): 0.0006%
Compound: D-a-tocopheryl polyethylene glycol 1000 succinate [VitE-TPGS]
IC50 (LP9 cells): 0.0014%

Source: patent US20220080025A1, “VITAMIN E AND CANCER THERAPEUTIC COMPOSITIONS AND METHODS” (University of Vermont and State Agricultural College, priority 2019, published 2022)
